# From ChEMBL document CHEMBL5291721, “A preclinical secondary pharmacology resource illuminates target-adverse drug reaction associations of marketed drugs” (Nat Commun, 2023)
# Columns and labels:
# [1] = biological target: T1, Peroxisome proliferator-activated receptor alpha (Homo sapiens, UniProt Q07869); assay type: functional
# T1 sequence (Q07869 whole entry): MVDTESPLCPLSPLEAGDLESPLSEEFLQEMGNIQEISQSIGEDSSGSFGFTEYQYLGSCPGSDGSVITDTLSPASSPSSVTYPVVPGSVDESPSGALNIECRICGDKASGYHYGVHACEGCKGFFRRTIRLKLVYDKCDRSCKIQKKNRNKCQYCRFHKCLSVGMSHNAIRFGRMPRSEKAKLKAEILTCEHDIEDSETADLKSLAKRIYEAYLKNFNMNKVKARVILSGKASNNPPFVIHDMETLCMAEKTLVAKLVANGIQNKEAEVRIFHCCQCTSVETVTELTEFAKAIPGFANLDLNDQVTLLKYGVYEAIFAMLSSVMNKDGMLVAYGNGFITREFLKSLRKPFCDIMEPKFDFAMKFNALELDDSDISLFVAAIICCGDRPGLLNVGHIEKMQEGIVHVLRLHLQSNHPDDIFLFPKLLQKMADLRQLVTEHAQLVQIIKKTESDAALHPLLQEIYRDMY
# [2] = biological target: 5-hydroxytryptamine receptor 6 (Homo sapiens, UniProt P50406)
# Chain of 5-hydroxytryptamine receptor 6 (P50406 whole entry): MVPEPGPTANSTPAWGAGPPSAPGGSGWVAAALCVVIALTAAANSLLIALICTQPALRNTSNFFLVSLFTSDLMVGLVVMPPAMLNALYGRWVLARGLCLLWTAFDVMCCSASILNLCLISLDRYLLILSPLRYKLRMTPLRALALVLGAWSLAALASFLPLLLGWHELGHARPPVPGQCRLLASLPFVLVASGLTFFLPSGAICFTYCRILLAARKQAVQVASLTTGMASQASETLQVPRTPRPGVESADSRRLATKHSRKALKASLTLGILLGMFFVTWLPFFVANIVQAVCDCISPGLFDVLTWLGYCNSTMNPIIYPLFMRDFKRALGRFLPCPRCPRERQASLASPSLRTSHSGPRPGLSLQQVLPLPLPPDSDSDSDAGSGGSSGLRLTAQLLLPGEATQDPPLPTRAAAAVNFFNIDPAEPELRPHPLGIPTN
# [3] = biological target: T2, Muscarinic acetylcholine receptor M5 (Homo sapiens, UniProt P08912)
# T2 sequence (P08912 whole entry): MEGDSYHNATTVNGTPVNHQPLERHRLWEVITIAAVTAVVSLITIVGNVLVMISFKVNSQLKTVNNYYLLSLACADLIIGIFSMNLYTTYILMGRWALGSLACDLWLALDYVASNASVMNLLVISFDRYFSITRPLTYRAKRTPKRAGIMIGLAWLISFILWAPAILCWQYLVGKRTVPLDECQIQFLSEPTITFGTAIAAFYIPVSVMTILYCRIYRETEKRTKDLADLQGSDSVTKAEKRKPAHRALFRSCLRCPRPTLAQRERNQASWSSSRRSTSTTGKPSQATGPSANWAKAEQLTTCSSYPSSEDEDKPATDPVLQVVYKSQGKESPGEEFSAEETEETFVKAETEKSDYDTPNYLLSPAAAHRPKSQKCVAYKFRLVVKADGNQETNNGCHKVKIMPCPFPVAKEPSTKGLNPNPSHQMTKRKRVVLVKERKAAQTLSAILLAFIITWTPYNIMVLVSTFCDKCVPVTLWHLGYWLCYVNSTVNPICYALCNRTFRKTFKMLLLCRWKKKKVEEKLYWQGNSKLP
# Substance-K receptor = biological target: T3, Substance-K receptor (Homo sapiens, UniProt P21452)
# T3 sequence (P21452 whole entry): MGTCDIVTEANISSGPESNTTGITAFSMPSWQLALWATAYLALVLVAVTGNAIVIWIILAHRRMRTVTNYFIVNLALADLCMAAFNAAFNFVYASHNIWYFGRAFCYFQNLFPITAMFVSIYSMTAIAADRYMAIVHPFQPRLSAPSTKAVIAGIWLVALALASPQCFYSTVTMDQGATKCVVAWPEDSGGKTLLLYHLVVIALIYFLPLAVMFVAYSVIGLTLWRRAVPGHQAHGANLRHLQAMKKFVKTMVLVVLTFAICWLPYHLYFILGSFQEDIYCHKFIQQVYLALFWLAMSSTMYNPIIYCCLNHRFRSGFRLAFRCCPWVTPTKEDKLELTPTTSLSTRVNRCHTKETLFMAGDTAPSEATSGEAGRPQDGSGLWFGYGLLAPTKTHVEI
# Androgen receptor [4] = biological target: T4, Androgen receptor (Rattus norvegicus, UniProt P15207); assay type: functional
# T4 sequence (P15207 whole entry): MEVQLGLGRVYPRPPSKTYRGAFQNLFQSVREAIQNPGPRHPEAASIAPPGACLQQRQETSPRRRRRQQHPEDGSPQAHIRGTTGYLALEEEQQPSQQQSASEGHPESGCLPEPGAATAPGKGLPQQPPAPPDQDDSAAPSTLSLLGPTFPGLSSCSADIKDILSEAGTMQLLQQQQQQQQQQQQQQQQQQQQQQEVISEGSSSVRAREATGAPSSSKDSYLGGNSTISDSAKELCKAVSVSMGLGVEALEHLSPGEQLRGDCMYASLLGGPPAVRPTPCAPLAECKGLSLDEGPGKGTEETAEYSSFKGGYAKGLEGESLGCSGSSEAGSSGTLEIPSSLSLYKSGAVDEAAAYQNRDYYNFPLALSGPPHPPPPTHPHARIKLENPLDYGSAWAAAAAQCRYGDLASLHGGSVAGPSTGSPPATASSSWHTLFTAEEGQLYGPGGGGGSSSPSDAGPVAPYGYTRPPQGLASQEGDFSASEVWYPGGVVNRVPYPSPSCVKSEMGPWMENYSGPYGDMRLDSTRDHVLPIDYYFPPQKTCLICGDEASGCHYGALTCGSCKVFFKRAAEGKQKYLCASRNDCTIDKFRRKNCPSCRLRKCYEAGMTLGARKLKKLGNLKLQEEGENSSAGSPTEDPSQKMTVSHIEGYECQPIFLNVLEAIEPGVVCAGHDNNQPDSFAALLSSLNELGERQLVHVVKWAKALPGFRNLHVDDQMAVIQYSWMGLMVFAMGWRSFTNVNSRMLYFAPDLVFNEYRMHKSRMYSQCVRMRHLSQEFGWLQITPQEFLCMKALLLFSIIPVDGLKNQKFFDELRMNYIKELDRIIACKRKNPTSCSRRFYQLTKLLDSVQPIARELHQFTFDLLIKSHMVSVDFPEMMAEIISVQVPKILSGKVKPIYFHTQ
# [5] = biological target: Hydroxycarboxylic acid receptor 2 (Homo sapiens, UniProt Q8TDS4)
# Chain of Hydroxycarboxylic acid receptor 2 (Q8TDS4 whole entry): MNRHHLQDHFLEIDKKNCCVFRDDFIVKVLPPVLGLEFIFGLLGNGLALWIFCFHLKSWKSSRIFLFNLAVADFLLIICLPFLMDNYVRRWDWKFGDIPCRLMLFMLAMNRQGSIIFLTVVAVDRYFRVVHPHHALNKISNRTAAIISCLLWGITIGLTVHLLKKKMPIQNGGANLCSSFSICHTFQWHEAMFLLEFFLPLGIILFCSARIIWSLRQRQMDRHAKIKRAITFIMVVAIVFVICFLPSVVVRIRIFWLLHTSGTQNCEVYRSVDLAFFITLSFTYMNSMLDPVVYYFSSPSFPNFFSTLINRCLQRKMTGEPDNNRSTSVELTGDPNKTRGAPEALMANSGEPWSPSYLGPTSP
# Acetylcholinesterase = Acetylcholinesterase (Homo sapiens, UniProt P22303); assay type: functional
# Chain of Acetylcholinesterase (P22303 whole entry): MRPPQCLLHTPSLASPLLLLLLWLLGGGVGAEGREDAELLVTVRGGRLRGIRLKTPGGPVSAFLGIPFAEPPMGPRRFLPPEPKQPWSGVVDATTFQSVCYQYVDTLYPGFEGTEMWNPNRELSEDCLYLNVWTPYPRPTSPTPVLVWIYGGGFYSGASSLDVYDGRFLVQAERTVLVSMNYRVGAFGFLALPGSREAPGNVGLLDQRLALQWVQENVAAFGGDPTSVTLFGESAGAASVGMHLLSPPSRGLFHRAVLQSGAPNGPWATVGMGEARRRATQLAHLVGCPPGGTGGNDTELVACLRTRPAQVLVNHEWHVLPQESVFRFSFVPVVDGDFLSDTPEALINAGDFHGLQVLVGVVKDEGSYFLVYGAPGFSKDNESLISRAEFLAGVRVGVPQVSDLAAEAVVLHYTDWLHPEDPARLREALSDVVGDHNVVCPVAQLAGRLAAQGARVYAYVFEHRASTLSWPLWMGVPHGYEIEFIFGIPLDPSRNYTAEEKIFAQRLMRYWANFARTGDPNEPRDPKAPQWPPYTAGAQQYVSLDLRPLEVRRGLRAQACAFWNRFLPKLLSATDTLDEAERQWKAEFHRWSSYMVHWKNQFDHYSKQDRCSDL
# [6] = biological target: Receptor tyrosine-protein kinase erbB-2 (Homo sapiens, UniProt P04626); assay type: functional
# Chain of Receptor tyrosine-protein kinase erbB-2 (P04626 whole entry): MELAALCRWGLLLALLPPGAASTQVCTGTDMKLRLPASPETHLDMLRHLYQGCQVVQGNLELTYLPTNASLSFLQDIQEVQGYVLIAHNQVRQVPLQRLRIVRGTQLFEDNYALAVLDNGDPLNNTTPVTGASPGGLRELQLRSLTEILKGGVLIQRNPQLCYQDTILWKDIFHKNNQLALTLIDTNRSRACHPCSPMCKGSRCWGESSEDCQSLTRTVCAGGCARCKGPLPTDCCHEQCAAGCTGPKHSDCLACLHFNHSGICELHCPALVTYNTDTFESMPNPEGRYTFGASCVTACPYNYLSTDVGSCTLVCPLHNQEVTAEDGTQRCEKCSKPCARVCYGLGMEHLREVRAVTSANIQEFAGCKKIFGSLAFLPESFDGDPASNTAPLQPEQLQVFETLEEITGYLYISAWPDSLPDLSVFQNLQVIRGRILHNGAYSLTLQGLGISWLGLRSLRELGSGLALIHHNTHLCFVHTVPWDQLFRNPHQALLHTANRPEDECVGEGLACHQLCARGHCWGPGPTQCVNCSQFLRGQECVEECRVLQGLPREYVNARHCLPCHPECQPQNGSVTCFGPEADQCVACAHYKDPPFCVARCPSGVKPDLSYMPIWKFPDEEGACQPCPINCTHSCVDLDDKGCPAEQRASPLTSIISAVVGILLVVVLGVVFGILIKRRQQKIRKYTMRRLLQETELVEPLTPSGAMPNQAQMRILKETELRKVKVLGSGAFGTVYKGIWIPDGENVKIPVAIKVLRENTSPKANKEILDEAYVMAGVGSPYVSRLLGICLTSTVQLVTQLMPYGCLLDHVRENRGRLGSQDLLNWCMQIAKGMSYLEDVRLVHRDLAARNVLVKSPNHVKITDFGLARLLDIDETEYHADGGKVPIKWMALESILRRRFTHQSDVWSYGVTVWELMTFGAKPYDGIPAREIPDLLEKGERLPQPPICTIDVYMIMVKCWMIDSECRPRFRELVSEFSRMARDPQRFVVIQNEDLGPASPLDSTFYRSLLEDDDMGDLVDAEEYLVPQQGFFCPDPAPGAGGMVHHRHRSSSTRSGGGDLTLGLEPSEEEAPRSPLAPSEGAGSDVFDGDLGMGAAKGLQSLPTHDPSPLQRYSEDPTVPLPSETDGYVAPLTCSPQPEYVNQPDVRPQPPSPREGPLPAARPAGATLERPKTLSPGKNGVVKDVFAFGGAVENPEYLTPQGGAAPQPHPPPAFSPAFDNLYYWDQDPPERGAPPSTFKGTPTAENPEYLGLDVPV
# [7] = biological target: Vascular endothelial growth factor receptor 2 (Homo sapiens, UniProt P35968); assay type: functional
# Chain of Vascular endothelial growth factor receptor 2 (P35968 whole entry): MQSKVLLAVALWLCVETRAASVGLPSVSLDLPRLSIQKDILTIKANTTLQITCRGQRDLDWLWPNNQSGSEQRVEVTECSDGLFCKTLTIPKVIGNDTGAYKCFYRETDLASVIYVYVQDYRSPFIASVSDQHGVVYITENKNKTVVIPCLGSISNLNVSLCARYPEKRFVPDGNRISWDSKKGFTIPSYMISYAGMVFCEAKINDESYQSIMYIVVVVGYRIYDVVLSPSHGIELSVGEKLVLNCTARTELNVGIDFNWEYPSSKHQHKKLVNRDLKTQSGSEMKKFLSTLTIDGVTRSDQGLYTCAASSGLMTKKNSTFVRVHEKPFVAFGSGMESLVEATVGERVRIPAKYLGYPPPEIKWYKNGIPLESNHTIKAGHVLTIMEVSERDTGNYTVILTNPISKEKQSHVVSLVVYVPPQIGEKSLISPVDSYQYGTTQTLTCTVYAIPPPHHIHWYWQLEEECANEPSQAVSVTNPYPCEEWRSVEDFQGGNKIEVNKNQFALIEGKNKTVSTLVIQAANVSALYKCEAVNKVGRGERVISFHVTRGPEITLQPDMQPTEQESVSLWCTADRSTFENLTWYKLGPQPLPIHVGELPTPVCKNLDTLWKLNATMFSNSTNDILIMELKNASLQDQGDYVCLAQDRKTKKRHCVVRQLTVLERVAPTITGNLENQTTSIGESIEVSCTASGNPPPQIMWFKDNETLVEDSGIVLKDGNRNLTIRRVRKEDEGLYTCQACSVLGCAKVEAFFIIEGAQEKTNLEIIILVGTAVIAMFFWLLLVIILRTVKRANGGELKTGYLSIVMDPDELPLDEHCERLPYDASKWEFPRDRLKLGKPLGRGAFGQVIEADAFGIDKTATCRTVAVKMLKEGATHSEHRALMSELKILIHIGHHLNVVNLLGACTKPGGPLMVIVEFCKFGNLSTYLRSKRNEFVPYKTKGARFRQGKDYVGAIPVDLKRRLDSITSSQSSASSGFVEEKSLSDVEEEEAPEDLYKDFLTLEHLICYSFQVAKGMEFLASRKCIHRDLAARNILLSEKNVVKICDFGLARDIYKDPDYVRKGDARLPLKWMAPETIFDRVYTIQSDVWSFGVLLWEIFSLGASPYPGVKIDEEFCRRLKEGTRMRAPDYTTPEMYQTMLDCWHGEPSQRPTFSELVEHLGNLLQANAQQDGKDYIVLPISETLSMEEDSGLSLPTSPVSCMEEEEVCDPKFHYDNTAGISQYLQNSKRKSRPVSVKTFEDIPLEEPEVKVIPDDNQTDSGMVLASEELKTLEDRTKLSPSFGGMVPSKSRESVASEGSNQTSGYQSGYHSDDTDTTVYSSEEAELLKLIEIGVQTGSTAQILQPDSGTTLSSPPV
# D(1A) dopamine receptor = D(1A) dopamine receptor (Homo sapiens, UniProt P21728); assay type: functional, cell-based
# Chain of D(1A) dopamine receptor (P21728 whole entry): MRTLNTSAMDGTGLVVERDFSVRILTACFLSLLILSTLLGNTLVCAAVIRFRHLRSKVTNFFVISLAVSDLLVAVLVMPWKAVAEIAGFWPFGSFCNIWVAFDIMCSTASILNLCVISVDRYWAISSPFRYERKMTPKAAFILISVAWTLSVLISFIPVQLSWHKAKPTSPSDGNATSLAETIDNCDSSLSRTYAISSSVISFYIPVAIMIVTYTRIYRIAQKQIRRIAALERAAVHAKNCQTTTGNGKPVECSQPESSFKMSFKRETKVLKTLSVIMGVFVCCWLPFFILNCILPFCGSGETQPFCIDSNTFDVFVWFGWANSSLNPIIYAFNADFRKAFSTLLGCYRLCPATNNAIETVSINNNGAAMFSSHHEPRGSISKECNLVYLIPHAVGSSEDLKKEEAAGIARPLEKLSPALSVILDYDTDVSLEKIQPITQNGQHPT
# [8] = biological target: Synaptic vesicular amine transporter (Rattus norvegicus, UniProt Q01827); assay type: functional
# Chain of Synaptic vesicular amine transporter (Q01827 whole entry): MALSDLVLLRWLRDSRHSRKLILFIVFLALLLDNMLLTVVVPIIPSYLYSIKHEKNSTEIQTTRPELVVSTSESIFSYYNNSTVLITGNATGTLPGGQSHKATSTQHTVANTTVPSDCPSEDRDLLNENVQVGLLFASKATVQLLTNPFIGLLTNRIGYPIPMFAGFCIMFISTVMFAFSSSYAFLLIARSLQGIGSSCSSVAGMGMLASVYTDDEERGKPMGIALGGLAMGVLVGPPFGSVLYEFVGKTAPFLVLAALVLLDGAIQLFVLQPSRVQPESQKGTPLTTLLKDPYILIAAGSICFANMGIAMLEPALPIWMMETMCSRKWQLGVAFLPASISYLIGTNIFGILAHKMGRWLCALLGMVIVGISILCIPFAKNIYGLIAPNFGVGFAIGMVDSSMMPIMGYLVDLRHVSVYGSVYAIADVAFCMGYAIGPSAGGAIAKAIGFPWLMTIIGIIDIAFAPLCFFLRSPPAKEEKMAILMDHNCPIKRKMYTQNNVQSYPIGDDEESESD
# Androgen receptor [9] = biological target: T4, Androgen receptor
# Also: assay procedure not described here.
structure (smiles),measurement,setting,value
CO[C@H]1/C=C/O[C@@]2(C)Oc3c(C)c(O)c4c(O)c(c(/C=N/N5CCN(C)CC5)c(O)c4c3C2=O)NC(=O)/C(C)=C\C=C\[C@H](C)[C@H](O)[C@@H](C)[C@@H](O)[C@@H](C)[C@H](OC(C)=O)[C@@H]1C [RIFAMPIN],AC50,[1],> 30 µM
same,AC50,[2],> 10 µM
N[C@@H](CC(=O)N1CCn2c(nnc2C(F)(F)F)C1)Cc1cc(F)c(F)cc1F [SITAGLIPTIN],AC50,[3],> 10 µM
same,AC50,[2],> 10 µM
same,AC50,Substance-K receptor,> 10 µM
CC(=O)O[C@]1(C(C)=O)CC[C@H]2[C@@H]3C=C(C)C4=CC(=O)CC[C@@H]4[C@H]3CC[C@@]21C [NOMEGESTROL ACETATE],AC50,Androgen receptor [4],> 30 µM
CC(C)Cc1ccc(C(C)C(=O)O)cc1 (stereo unspecified) [IBUPROFEN],AC50,[3],> 10 µM
same,AC50,[1],> 30 µM
same,AC50,[2],> 10 µM
Nc1ccc(S(=O)(=O)Nc2nccs2)cc1 [SULFATHIAZOLE],AC50,[5],> 10 µM
C[C@H](CCC(=O)O)[C@H]1CC[C@H]2[C@@H]3[C@@H](O)C[C@@H]4C[C@H](O)CC[C@]4(C)[C@H]3CC[C@]12C [URSODIOL],AC50,Acetylcholinesterase,> 30 µM
same,AC50,[6],> 30 µM
same,AC50,[7],> 10 µM
same,AC50,D(1A) dopamine receptor,> 30 µM
CC(C)C[C@H](NC(=O)CNC(=O)c1cc(Cl)ccc1Cl)B(O)O [IXAZOMIB],AC50,[8],> 30 µM
C=CC[C@@H]1/C=C(\C)C[C@H](C)C[C@H](OC)[C@H]2O[C@@](O)(C(=O)C(=O)N3CCCC[C@H]3C(=O)O[C@H](/C(C)=C/[C@@H]3CC[C@@H](O)[C@H](OC)C3)[C@H](C)[C@@H](O)CC1=O)[C@H](C)C[C@@H]2OC [TACROLIMUS ANHYDROUS],AC50,[3],> 10 µM
same,AC50,Acetylcholinesterase,> 30 µM
same,AC50,[6],> 30 µM
same,AC50,[7],> 30 µM
same,AC50,D(1A) dopamine receptor,> 30 µM
same,AC50,[2],> 10 µM
same,AC50,Androgen receptor [9],> 30 µM
CN(C)CCc1c[nH]c2ccc(Cn3cncn3)cc12 [RIZATRIPTAN],AC50,[3],> 10 µM
same,AC50,[2],> 10 µM
same,AC50,Androgen receptor [9],> 30 µM
COc1ccccc1Oc1c(NS(=O)(=O)c2ccc(C(C)(C)C)cc2)nc(-c2ncccn2)nc1OCCO [BOSENTAN],AC50,[1],> 30 µM
CC(C)(O)CNc1nc(Nc2ccnc(C(F)(F)F)c2)nc(-c2cccc(C(F)(F)F)n2)n1 [ENASIDENIB],AC50,[8],1.8 µM
Cc1onc(-c2ccccc2)c1-c1ccc(S(N)(=O)=O)cc1 [VALDECOXIB],AC50,[3],> 10 µM
same,AC50,[5],> 10 µM
same,AC50,[2],> 10 µM
same,AC50,Substance-K receptor,> 10 µM
CCCN(CCC)C(=O)Cc1c(-c2ccc(Cl)cc2)nc2ccc(Cl)cn12 [ALPIDEM],AC50,[3],> 10 µM
same,AC50,[2],> 10 µM
same,AC50,Substance-K receptor,> 10 µM
C[C@H]1c2cccc(O)c2C(=O)C2=C(O)[C@]3(O)C(=O)C(C(N)=O)=C(O)[C@@H](N(C)C)[C@@H]3[C@@H](O)[C@@H]21 [DOXYCYCLINE],AC50,[5],> 10 µM
CCN1CCN(Cc2ccc(Nc3ncc(F)c(-c4cc(F)c5nc(C)n(C(C)C)c5c4)n3)nc2)CC1 [ABEMACICLIB],AC50,Acetylcholinesterase,> 30 µM
same,AC50,[6],> 30 µM
same,AC50,[7],14 µM
same,AC50,D(1A) dopamine receptor,> 30 µM
COc1cc2nccc(Oc3ccc(NC(=O)C4(C(=O)Nc5ccc(F)cc5)CC4)cc3)c2cc1OC [CABOZANTINIB],AC50,Acetylcholinesterase,> 30 µM
same,AC50,[6],6.2 µM
same,AC50,D(1A) dopamine receptor,13 µM
CCCC(CCC)C(=O)O [VALPROIC ACID],AC50,[3],> 10 µM
same,AC50,[2],> 10 µM
same,AC50,Substance-K receptor,> 10 µM
OC[C@H]1O[C@@H](c2ccc(Cl)c(Cc3ccc(O[C@H]4CCOC4)cc3)c2)[C@H](O)[C@@H](O)[C@@H]1O [EMPAGLIFLOZIN],AC50,[8],16 µM
CC(C(=O)O)c1ccc2c(c1)[nH]c1ccc(Cl)cc12 (stereo unspecified) [CARPROFEN],AC50,[1],> 30 µM
COc1ccc(CC2c3cc(OC)c(OC)cc3CC[N+]2(C)CCC(=O)OCCCCCOC(=O)CC[N+]2(C)CCc3cc(OC)c(OC)cc3C2Cc2ccc(OC)c(OC)c2)cc1OC (stereo unspecified),AC50,Androgen receptor [4],> 30 µM
COc1ccccc1OCCNCC(O)COc1cccc2[nH]c3ccccc3c12 (stereo unspecified) [CARVEDILOL],AC50,[3],> 10 µM
same,AC50,Androgen receptor [4],> 30 µM
same,AC50,[2],1.25 µM
same,AC50,Androgen receptor [9],> 30 µM
C[C@@H](Oc1cc(-c2cnn(C3CCNCC3)c2)cnc1N)c1c(Cl)ccc(F)c1Cl [CRIZOTINIB],AC50,D(1A) dopamine receptor,> 30 µM
CCN(CC)CCNC(=O)c1c(C)[nH]c(/C=C2\C(=O)Nc3ccc(F)cc32)c1C [SUNITINIB],AC50,[1],> 30 µM
same,AC50,[2],2.39 µM
C[C@@H](NCCCc1cccc(C(F)(F)F)c1)c1cccc2ccccc12,AC50,Androgen receptor [4],> 30 µM
